According to US10358469B2, “Methods and pharmaceutical compositions for the treatment of cancer” (INSERM (INSTITUT NATIONAL DE LA SANTÉ ET DE LA RECHERCHE …, priority 2014, dated 2019):

Columns and labels:
[1] = system: normal cells (HaCat, NCTC and human primary fibroblasts); assay: Cell viability (MTT) of normal cells; format: cell-based; settings: increasing concentrations, 24 hours, FIG. 1B
HaCat cells = assay: Lactate dehydrogenase (LDH) release, HaCat cells; format: cell-based; settings: 10 μM, FIG. 4B
Method: FIG. 4: Antp-AAC-11-LZ (363-399) peptide induced necrotic cell death under low serum conditions. (A) SeAx or HaCat cells cultured in the absence of 10% FBS were left untreated or treated with 4 μM or 10 μM, respectively, of the Antp-AAC-11-LZ (363-399) peptide for the indicated durations. Cells were then analyzed by flow cytometry for PI staining. The results represent the mean number of PI-positive cells±S.D. from at least three independent experiments. (B) A549 and HaCat cells were plated at a densities of 4.5×10^3 in 96 well plates (100 μL total volume per well) and allowed to attach overnight in a 37° C. incubator (5% CO2). […] Lactate dehydrogenase (LDH) activity released in the culture medium was then assessed and data expressed as a percentage of the maximal level (Max) of LDH activity determined after total cell lysis±S.D. from at least three independent experiments.
Cytoplasmic lactate dehydrogenase (LDH) release into the cell culture supernatant occurs upon damage of the plasma membrane, and it is therefore considered a typical hallmark of necrosis. […] LDH activity was measured using the CytoTox 96® assay (Promega) by the reduction of lactate to pyruvate in the presence of NAD^+. […] Visible wavelength absorbance data are collected using a standard 96-well plate reader. […]
Necrosis was further assessed based on lactate dehydrogenase (LDH) activity release in the culture medium. […]

D3H2LN cells [2] = assay: Transwell Boyden chamber migration assay, D3H2LN cells; format: cell-based; settings: 2 μM, toward 10% FBS, 12 h, FIG. 7A
Method: FIG. 7: Antp-AAC-11-LZ (363-399) peptide inhibits cell migration and invasion. (A) D3H2LN cells were added to the upper well of modified Boyden chamber (transwell) plates with a vehicle or with either 2 μM of the Antp-AAC-11-LZ (363-399) peptide or the Antp-only peptide and subjected to a transwell migration assay as described under Materials and methods. The cells were allowed to migrate toward 10% FBS for 12 […]h. Triplicate wells were used for each of three independent experiments. The results are expressed relative to the migration of the untreated cells (=100%). Column: Mean of three experiments. Bar: s.e. P-value was determined by Student's t-test (*P<0.01). (B) D3H2LN cells were seeded in a Matrigel-coated Boyden chamber with a vehicle or with either 2 μM of the Antp-AAC-11-LZ (363-399) peptide or the Antp-only peptide and subjected to a transwell migration assay as described under Materials and methods. The cells were allowed to migrate toward 10% FBS for 24 […]h. Triplicate wells were used for each of three independent experiments. The results are expressed relative to the migration of the untreated cells (=100%). Column: Mean of three experiments. Bar: s.e. P-value was determined by Student's t-test (*P<0.01) […]

D3H2LN cells [3] = assay: Proliferation of D3H2LN cells (not showed); format: cell-based
[4] = system: human triple-negative breast cancer xenograft PDX02; assay: Triple-negative breast cancer patient-derived xenograft PDX02 in nude mice; format: in vivo; settings: 2.4 mg/kg i.p., 7 daily injections, FIG. 8B
Method: Breast cancer fragments were obtained from patients at the time of surgery, with informed written patient consent. After imaging-guided human tumor biopsies had been performed, fragments of 30 to 60 mm^3 were subcutaneously grafted in 6-week-old NMRI-nude mice (Centre-Elevage-Janvier, France), under xylasin (10 mg/kg)/ketamin (100 mg/kg) anesthesia. Mice were maintained in specific pathogen-free animal housing (Institut Universitaire d'Hematologie) and received estrogen (17 mg/mL) diluted in drinking water. Xenografts were characterized and subsequently subcutaneously transplanted from mouse to mouse. […] Two human triple-negative breast cancer (HBC) xenografts models were used in our experiments (PDX01 and PDX02). […] Following transplantation (n=6 per model) tumor growth was assessed by measuring tumor size in two dimension using a Vernier caliper. Tumor volume was calculated using the formula [3.14×long axis×short axis×short axis]/6 (Kjonniksen et al., 1989). […] Mice were weighted and the tumor size was measured by a caliper and recorded daily. Fourteen days after beginning of the treatment mice were sacrificed. The tumors, kidney, lungs, heart, liver, pancreas and spleen were taken and fixed. Paraffin-embedded sections were prepared and stained with hematoxylin and eosin for histological analysis.

Ac-RQIKIWFKKQNRRMKWKKAKLNAEKLKDFKIRLQYFARGLQVYIRQLRLALQGKT-NH2 [Antp-AAC-11-LZ (363-399)]
toxicity in normal cells [1]: much reduced toxicity
LDH release in nonmalignant cells (HaCat cells): little LDH release
cell migration (D3H2LN cells [2]): substantially decreased
proliferation at the concentrations used for migration (D3H2LN cells [3]): neither the Antp-AAC-11-LZ (363-399) or TAT-AAC-11-LZ (363-399) peptides impaired proliferation
tumor size versus vehicle [4]: significantly smaller tumors
